# Results published in patent US6566073B1, “Materials and methods involving conditional retention domains” (Ariad Gene Therapeutics, Inc., priority 1998, dated 2003).
# How the values were obtained:
# wild-type FKBP = wild-type FKBP (Homo sapiens, UniProt P62942); assay: Binding of bumped FKBP ligands to wild-type FKBP
# Source text: (§1) AP21998 and AP22542 are ligands of FKBP that have particular utility for CAD applications, because they bind with high affinity to F36M-FKBP but poorly to the wild-type protein, and are thus anticipated to lead to minimal interactions with the endogenous proteins during in vivo applications. The design and assay of such “bumped” ligands that target a hole created by truncating FKBP residue Phe36 have been described (Clackson et al., Proc. Natl. Acad. Sci. USA 95:10437-10442, 1998).
# [1] = target: T1, F(36M)4-hIn-m3 fusion protein in HT1080 cells (Homo sapiens, UniProt P01308+P62942, F37M/H34D/K53R/L86R/R55K); assay: Regulated insulin secretion from transiently transfected HT1080 cells (C-peptide ELISA); format: cell-based; conditions: increasing concentrations of ligand, 3 hours, FIG. 8
# T1 construct: fusion of F(36M) domains to insulin results in a suppression of its secretion; expressed in transfected cells; host or cells: HT1080 cells, transient transfection
# Procedure: A vector driving expression of this F(36M)-insulin fusion protein (F(36M)4-hIn-m3) was transiently transfected into HT1080 cells. For comparison, vectors driving the expression of insulin protein alone, with (hIn-m3) or without (hIn-wt) the three mutations were also transfected. Following overnight incubation of cells in the absence of ligand, the medium was washed away and fresh medium added, without or with increasing concentrations of the monomeric ligand, AP21998. Three hours later, the amount of insulin secreted into the medium was determined by ELISA using an assay that recognizes an epitope within the C-peptide (ALPCO).
# [2] = target: T2, F(36M)-hGH fusion protein in HT88 cells (stably transfected HT1080) (Homo sapiens, UniProt P01241+P62942, F37M); assay: Ligand-dependent hGH secretion from HT88 cells (radioimmunoassay); format: cell-based; conditions: FIG. 5A
# T2 construct: 4 copies of the F(36M) domain; expressed in transfected cells; host or cells: HT1080 human fibrosarcoma cells, stably transfected pool HT88
# Procedure: A vector driving the expression of this fusion protein, under control of the strong constitutive enhancer from CMV, was transiently transfected into HT1080 cells, a human fibrosarcoma cell line. Following overnight incubation of cells in the absence of ligand, the medium was washed away and fresh medium added, with or without ligand. Two hours later, the amount of hGH secreted into the medium was determined by radioimmunoassay. […] In contrast, in the presence of ligand, the amount of hGH secreted was several hundred-fold greater.
# Pools of clones stably transfected with the F(36M)-hGH fusion protein (HT88 pool) were analyzed as described for the transiently transfected cells. […] To determine the constitutive rate of hGH secretion, the amount of hGH secreted in the presence of ligand was measured from cells that had already been exposed to ligand for 15 hours. As shown in lane 3, the constitutive rate of secretion from the HT88 cell line was very similar to the rate of secretion from the HT89 cell line which had been stably transfected with the wild type hGH protein (lane 4). Thus, in the presence of ligand the F(36M) domains have no detectable “retention” activity. […] This steady state level of stored F(36M)-hGH fusion protein can persist for months in the cell line with no apparent toxic effect. […]
# F36M-FKBP = F36M-FKBP (Homo sapiens, UniProt P62942, F37M); assay: Binding of bumped FKBP ligands to F36M-FKBP
# Source text: as §1
# [3] = target: T3, F(36M)4-hIn-m3 fusion protein in implanted HT101-10p cells (Homo sapiens, UniProt P01308+P62942, F37M/H34D/K53R/L86R/R55K); assay: Regulated insulin secretion in vivo: serum insulin and glucose in STZ-treated mice implanted with HT101-10p cells; parameters: species or system male nu/nu mice
# T3 construct: fusion of F(36M) domains to insulin results in a suppression of its secretion; expressed in transfected cells; host or cells: HT101-10p cells (HT1080 stably transfected), implanted intramuscularly into male nu/nu mice
# Procedure: To test whether this system could be used to regulate secretion of insulin in vivo and effect changes in serum glucose levels, 2×10e7 HT101-10p cells were implanted intramuscularly into male nu/nu mice. HT101-10p cells were generated by stably transfecting HT1080 cells with a vector that drives expression of the F(36M)4-hIn-m3 fusion protein. Mice were made hyperglycemic by treatment 2 days earlier with 300 mg/kg streptozotocin (STZ). […] Approximately 1 hr after cells are implanted, animal received vehicle or the indicated dose of intravenous AP22542 (an analog of AP21998). Two hours later, serum samples were collected and assayed for insulin (Ultrasensitive human insulin-specific RIA, Linco) and glucose (Sigma) concentrations. […] In contrast, in animals treated with 10 mg/kg AP22542, serum insulin levels increase to ˜200 pM and serum glucose levels decline to ˜75 mg/dl.
# To examine the kinetics of this ligand-induced reduction in serum glucose, STZ-treated mice implanted with 2×10e7 HT101-10p cells were administered a single dose of 30 mg/kg AP22542 intravenously. Serum glucose levels were measured at various times between 5 minutes and 10 hours later. […] This effect is transient as serum glucose levels rise to 350 mg/dl within 5 hours and return to baseline between 6 and 10 hours later. Since insulin secretion is dependent on the presence of the drug, administration of lower doses of AP22542 or of a ligand with a shorter half life should result in an even more transient production of secreted protein and resulting physiological effect. Conversely, administration of higher doses of AP22542 or of a ligand with a longer half life should result in a more prolonged production of secreted protein.
# [4] = 1 mg/kg intravenous, 2 hours after dose, hyperglycemic mice
# T3 sequence (P62942+P01308 fused P62942:F37M/P01308:H34D/P01308:K53R/P01308:R55K/P01308:L86R): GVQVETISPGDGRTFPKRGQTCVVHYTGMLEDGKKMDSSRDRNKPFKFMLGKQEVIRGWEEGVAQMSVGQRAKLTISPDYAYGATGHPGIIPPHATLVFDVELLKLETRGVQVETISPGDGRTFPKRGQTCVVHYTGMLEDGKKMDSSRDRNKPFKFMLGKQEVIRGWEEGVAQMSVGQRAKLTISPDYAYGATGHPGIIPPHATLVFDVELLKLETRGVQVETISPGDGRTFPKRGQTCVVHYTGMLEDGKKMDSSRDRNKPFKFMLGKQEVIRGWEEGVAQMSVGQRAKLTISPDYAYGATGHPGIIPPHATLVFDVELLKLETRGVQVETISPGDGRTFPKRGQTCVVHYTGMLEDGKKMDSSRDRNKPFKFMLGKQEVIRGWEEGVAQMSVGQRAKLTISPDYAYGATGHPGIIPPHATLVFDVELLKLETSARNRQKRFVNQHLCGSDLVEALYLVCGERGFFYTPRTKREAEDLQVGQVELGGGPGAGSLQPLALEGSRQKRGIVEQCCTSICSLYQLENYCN
# Sequence of wild-type FKBP (P62942 whole entry, the tested form may be a part): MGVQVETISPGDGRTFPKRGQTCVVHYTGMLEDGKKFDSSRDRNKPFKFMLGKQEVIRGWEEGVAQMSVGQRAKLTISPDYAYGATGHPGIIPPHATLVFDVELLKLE
# Sequence of F36M-FKBP (P62942 whole entry F37M): as the sequence (P62942 whole entry, the tested form may be a part) above, with F37M counted along it
# T2 sequence (P62942+P01241 fused P62942:F37M): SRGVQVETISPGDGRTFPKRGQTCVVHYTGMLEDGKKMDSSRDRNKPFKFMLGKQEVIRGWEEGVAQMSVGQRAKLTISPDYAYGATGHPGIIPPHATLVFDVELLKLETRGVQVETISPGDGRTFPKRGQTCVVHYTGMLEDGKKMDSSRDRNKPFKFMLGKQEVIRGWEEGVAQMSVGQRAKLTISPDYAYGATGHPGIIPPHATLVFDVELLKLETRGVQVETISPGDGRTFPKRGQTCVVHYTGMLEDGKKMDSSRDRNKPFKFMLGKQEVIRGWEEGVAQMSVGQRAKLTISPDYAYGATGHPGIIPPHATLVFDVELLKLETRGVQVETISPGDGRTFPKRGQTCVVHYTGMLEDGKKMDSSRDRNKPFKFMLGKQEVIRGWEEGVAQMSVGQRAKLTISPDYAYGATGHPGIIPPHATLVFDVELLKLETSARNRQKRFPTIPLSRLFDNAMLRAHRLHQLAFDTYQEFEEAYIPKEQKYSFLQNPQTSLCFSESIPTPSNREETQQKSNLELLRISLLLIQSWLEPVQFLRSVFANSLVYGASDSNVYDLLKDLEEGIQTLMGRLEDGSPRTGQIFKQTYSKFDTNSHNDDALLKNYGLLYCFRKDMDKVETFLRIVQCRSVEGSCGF
# T1 sequence (P62942+P01308 fused P62942:F37M/P01308:H34D/P01308:K53R/P01308:R55K/P01308:L86R): as the sequence (P62942+P01308 fused P62942:F37M/P01308:H34D/P01308:K53R/P01308:R55K/P01308:L86R) above
binding to the wild-type protein (wild-type FKBP),concentration giving peak level of hGH secretion [2],EC50 ([2]; read-out: half-maximal secretion of hGH),binding to F36M-FKBP (F36M-FKBP),"serum glucose [3, 4]","serum insulin levels ([3]; 10 mg/kg intravenous, 2 hours after dose)","serum glucose levels ([3]; 10 mg/kg intravenous, 2 hours after dose, STZ baseline ~350 mg/dl)","serum glucose levels ([3]; 30 mg/kg intravenous single dose, by two hours, initial levels nearly 500 mg/dl)","serum glucose ([3]; 30 mg/kg intravenous single dose, within 30 minutes)","serum glucose levels ([3]; 30 mg/kg intravenous single dose, within 5 hours)",SMILES,insulin secretion into medium [1],"serum insulin levels [3, 4]","serum glucose levels ([3]; 30 mg/kg intravenous single dose, 5 and 15 minutes after administration)"
poorly,2 to 3 µM,600 nM,high affinity,–,–,–,–,–,–,CC[C@H](C(=O)N1CCCCC1C(=O)O[C@H](CCc1ccc(OC)c(OC)c1)c1cccc(OCC(=O)NCCCN(C)C)c1)c1cc(OC)c(OC)c(OC)c1 (stereo partly drawn) [AP21998],secretion is induced in the presence of monomer in a dose-dependent manner,–,–
poorly,–,–,high affinity,no change in serum glucose,~200 pM,~75 mg/dL,50 mg/dL,significant reduction in serum glucose,350 mg/dL,"CC[C@H](C(=O)N1CCCC[C@H]1C(=O)O[C@H](CCc1ccc(OC)c(OC)c1)c1cccnc1)c1cc(OC)c(OC)c(OC)c1 [AP22542, 1-[2(S)-(3,4,5-trimethoxyphenyl)-butyryl]-piperdine-2(S)-carboxylic acid, 3-(3,4-Dimethoxyphenyl)-1-pyridin-3-yl-propan-1(R)-ol ester]",–,fails to increase serum insulin levels above the lower limit of detection,indistinguishable from animals treated with vehicle
